The test system of data set [1] is Human breast cancer cells (MDA-MB-231). In words: MTT tumor cell growth inhibition, MDA-MB-231. Type of data set: cell-based. Particulars: MDA-MB-231, MTT, 72 hours, relative IC50. The source says: (§1) The tetrazolium salt (MTT) reduction method was used to test the activity of the compounds of the present invention. Human breast cancer cells (MDA-MB-231) (CAS cell library; catalog number: TCHu227), human lung cancer cells (A549) (ATCC® Number: CRM-CCL-185™), human colon cancer cells (HCT-116) (CAS cell library; catalog number: TCHu99), acute monocytic leukemia cells (MV4-11) (ATCC® Number: CRL-9591™), tissue cell lymphoma cells (U-937) (CAS cell library; catalog number: TCHu159), human acute promyelocytic leukemia cells (HL-60) (ATCC® Number: CCL-240™), chronic myelogenous leukemia cells (of K562) (CAS cell library; catalog number: TCHu191), human hepatocellular carcinoma cells (BEL-7404) (CAS cell library; catalog number: TCHu64), human pancreatic cancer cells (BxPC3) (ATCC® Number: […])) and human prostate cancer cells (PC-3) (ATCC®Number: […]) were inoculated in 96-well plates, 90 μL/well, with 3000 to 8000 cells in respective well; in the first row of plate, 100 μL/well culture medium was added; the 96-well plate was pre-incubated in an incubator at 37° C., 5% CO2, and 100% relative humidity for 24 hours.
(§2) A compound was weighed and configured to a 10 mM/L stock solution, and the compound was diluted three-fold sequentially from the highest concentration of 2 millimoles (mM); 95 μl the corresponding cell medium was added to each well of a V-bottom dispensing plate; 5 μl of the compound on a 200× plate was transferred to a 10× dispensing plate according to the concentration; 5 μl of dimethylsulfoxide (DMSO) was evenly mixed in the corresponding 95 μl cell culture medium as a vehicle control. 10 μl of the compound-medium in each well of the 10× dispensing plate was added to a 96-well plate already plated with cells. […]
(§3) After the compound for cells was treated for 72 hours, 20 microliters of 5 mg/ml MTT was added to each well; all the steps need to be aseptic. […] The absorbance at 490 nm was read on a SpectraMax M2e instrument. The compound activity (relative IC50) was calculated using GraphPad Prism software.

Data set [2] concerns human lung cancer cells (A549). The experiment in a line: MTT tumor cell growth inhibition, A549. Type of data set: cell-based. The note with it: 72 hours, relative IC50.
Source text: as §1, §2, §3

The test system of data set [3] is chronic myelogenous leukemia cells (K562). In words: MTT tumor cell growth inhibition, K562. Type of data set: cell-based. The note with it: Homo sapiens, 72 hours, relative IC50.
Source text: as §1, §2, §3

Data set [4] concerns human prostate cancer cells (PC-3). The experiment in a line: MTT tumor cell growth inhibition, PC-3. Type of data set: cell-based. Particulars: PC-3, MTT, 72 hours, relative IC50.
Source text: as §1, §2, §3

The test system of data set [5] is tumor cells. The experiment in a line: MTT tumor cell growth inhibition, summary over the cell line panel. Type of data set: cell-based. Particulars: ten tumor cell lines of Table 2, MTT, 72 hours; read-out: IC50 of tumor cell proliferation inhibition, span over the tested cell lines.
Source text: as §1, §2, §3

Data set [6] has as its system blood cells. In words: Effect on blood phase, complete blood count (CBC) analysis. Type of data set: in vivo, BAB-C mice. The note with it: mice, 0.5 mg/kg; for PLT / RBC / WBC: mean±SD. Here is the method: BAB-C mice (6 to 8 weeks old, a half being males and the other half females, weighing about 18 g-25 g, supplier: Beijing Vital River Laboratory Animal Technology Co., Ltd.) were raised for one week and then divided into three groups: normal control group, Romidepsin group, and compound A group. The normal group was injected with the vehicle; the drug group was injected with 0.5 mg/kg of the drug; 24 hours and 48 hours respectively after administration, a complete blood count (CBC) analysis was performed; for all the data, mean±standard deviation (mean±SD) was adopted; T tests were performed between inter-group data.

Data set [7] has as its system MDA-MB-231 breast cancer. In words: In vivo efficacy study of compound B, xenografted MDA-MB-231 breast cancer. Also on record: species or system BALB/c nude mice. Particulars: once a week for four weeks. The protocol: Female BALB/C nude mice 6 weeks to 8 weeks old and weighing about 19 g to 29 g were taken and raised for one week (supplier: Beijing Vital River Laboratory Animal Technology Co., Ltd.) MDA-MB-231 (ATCC® Number: HTB-26™) breast cancer cells were cultured in vitro; the culture conditions were: 10% fetal bovine serum was added to an L-15 medium, 37° C., and 0% CO2. Passage was performed twice a week. When the cells were in the exponential growth phase, the cells were collected, counted, and inoculated. […] The cells were suspended in phosphate buffered saline (PBS) and Matrigel (1:1) was added. A total of 50 mice were inoculated. […] The experimental indicator was to examine whether the tumor growth was inhibited, delayed, or subsided. Tumor diameter was measured three times a week with a vernier caliper. The formula for calculating tumor volume is as follows: […] The antitumor efficacy of the compound was evaluated with T/C (%) and of TGI. […] T0 indicates the mean tumor volume of the treatment group at the time of administration by cage; Vi indicates the mean tumor volume of the vehicle group on the same day; V0 indicates the mean tumor volume of the vehicle group at the time of administration by cage. At the end of the experiment, the tumors were stripped, weighed, and photographed.

Several values for one entry are separate records, joined by “and”; a condition that tells them apart may be missing. Equal values may be shown once. Marks after values point to notes of the source that are not given here.

In the case of `C/C=C1\NC(=O)[C@H]2CSSCC/C=C/[C@H](CC(=O)N[C@H](C(C)C)C(=O)N2)OC(=O)[C@H](C(C)C)NC1=O` [Romidepsin, reference compound], the IC50 in data set [1] is 3.6 nM; in data set [2], 5.2 nM; in data set [3] it was 4.1 nM; in data set [4], 7.1 nM; in data set [5] it was 3.6 to 8.7 nM. Further, the PLT is on record as 600.56 ± 71.51** 1 × 10*9/L in data set [6] (24 h after administration) and 431.31 ± 64.96** 1 × 10*9/L in data set [6] (48 h after administration). In addition, the RBC in data set [6] (24 h after administration) is given as 10.30 ± 0.47 1 × 10*12/L; in data set [6] (48 h after administration), 10.23 ± 0.78 1 × 10*12/L. The values for the WBC in data set [6] (24 h after administration) and in data set [6] (48 h after administration) were 4.32 ± 2.61** 1 × 10*9/L and 6.92 ± 3.29** 1 × 10*9/L, respectively. This molecule had a WBC count decrease in data set [6] (at 24 h, vs normal group) of 75%. In addition, in data set [6] (at 24 h and 48 h), the “PLT compared with the normal group” value is given as “significantly decreased”. Also, in data set [6] (at 48 h), the “WBC count restored to percent of the normal group” value worked out at 40%. In data set [7] (6.6 mg/kg intravenous, mean ± standard error), the “Day 28 tumor volume” value was 260 mm^3 and 260 ± 103 mm^3. Further, in data set [7] (day 28, 6.6 mg/kg intravenous), the “T/C (%)” value is 11.4%. For the same molecule, in data set [7] (day 28, 6.6 mg/kg intravenous), the “TGI (%)” value worked out at 88.6%.

The values are drawn from US20180057530A1, “CYCLIC PEPTIDE COMPOUND, AND PREPARATION AND USE THEREOF” (Zhejiang Hisun Pharmaceutical Co., Ltd., priority 2015, published 2018).
